# According to ChEMBL document CHEMBL1129892, “Tetracyclic analogues of [+]-S 14297: Synthesis and determination of affinity and selectivity at cloned human dopamine D3 vs D2 receptors” (Bioorg Med Chem Lett, 1997):
# Assays:
# D(2) dopamine receptor = D(2) dopamine receptor (Homo sapiens, UniProt P14416); type: cell membranes, CHO
# D(3) dopamine receptor = D(3) dopamine receptor (Homo sapiens, UniProt P35462); test: biochemical
# D(3) dopamine receptor, sequence (P35462 whole entry): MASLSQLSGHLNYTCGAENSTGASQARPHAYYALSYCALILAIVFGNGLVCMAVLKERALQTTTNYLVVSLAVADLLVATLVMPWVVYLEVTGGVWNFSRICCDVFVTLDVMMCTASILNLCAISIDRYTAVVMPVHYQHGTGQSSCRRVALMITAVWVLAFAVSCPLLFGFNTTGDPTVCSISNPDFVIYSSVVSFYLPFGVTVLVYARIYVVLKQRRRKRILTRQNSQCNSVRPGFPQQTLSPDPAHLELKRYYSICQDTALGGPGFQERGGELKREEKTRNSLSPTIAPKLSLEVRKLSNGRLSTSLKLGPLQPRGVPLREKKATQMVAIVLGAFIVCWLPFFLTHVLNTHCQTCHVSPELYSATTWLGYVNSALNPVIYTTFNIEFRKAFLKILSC
# Description: Inhibition of [125 I]iodosulpiride binding to human Dopamine receptor D3 expressed in CHO cell membranes
# D(2) dopamine receptor, sequence (P14416 whole entry): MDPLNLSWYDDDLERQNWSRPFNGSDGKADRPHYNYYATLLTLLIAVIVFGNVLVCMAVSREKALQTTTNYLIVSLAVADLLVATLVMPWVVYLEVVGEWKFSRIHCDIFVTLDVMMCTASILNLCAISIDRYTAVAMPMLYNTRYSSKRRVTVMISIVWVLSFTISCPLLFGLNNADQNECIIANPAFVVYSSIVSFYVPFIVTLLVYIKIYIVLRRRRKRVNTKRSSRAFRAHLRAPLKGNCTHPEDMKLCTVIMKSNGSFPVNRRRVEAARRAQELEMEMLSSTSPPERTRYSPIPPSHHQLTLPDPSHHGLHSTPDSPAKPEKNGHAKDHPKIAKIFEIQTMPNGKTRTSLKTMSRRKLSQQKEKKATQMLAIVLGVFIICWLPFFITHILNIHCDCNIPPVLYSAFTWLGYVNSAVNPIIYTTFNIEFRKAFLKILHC
compound,measurement,setting,value
CCCN(CCC)C1CCc2cc3c(cc2C1)OCC3 (stereo not given),Ki,D(2) dopamine receptor,0.251 µM
same,Ki,D(3) dopamine receptor,0.0126 µM
CC(C)CN1CCO[C@@H]2c3cc4c(cc3CC[C@H]21)CCO4,Ki,D(2) dopamine receptor,5.01 µM
same,Ki,D(3) dopamine receptor,0.126 µM
CCCN1CCO[C@@H]2c3cc4c(cc3CC[C@H]21)CCO4,Ki,D(2) dopamine receptor,0.398 µM
CCCN1CCO[C@@H]2c3cc4c(cc3OC[C@H]21)CCO4,Ki,D(2) dopamine receptor,12.6 µM
CCCN1CCC[C@@H]2c3cc4c(cc3CC[C@H]21)CCO4,Ki,D(2) dopamine receptor,0.501 µM
same,Ki,D(3) dopamine receptor,0.0251 µM
c1c2c(cc3c1CC[C@@H]1[C@@H]3OCCN1CC1CC1)OCC2,Ki,D(2) dopamine receptor,2.51 µM
same,Ki,D(3) dopamine receptor,0.0631 µM
c1c2c(cc3c1CC[C@H]1NCCO[C@H]31)OCC2,Ki,D(2) dopamine receptor,1 µM
same,Ki,D(3) dopamine receptor,0.2 µM
CN1CCO[C@@H]2c3cc4c(cc3CC[C@H]21)CCO4,Ki,D(2) dopamine receptor,0.398 µM
same,Ki,D(3) dopamine receptor,0.0794 µM
CCCN1CCO[C@H]2c3cc4c(cc3CC[C@H]21)CCO4,Ki,D(2) dopamine receptor,> 10 µM
CCCN1CCO[C@H]2c3cc4c(cc3OC[C@H]21)CCO4,Ki,D(2) dopamine receptor,> 100 µM
c1ccc(CN2CCO[C@@H]3c4cc5c(cc4CC[C@H]32)CCO5)cc1,Ki,D(2) dopamine receptor,> 10 µM
same,Ki,D(3) dopamine receptor,> 10 µM
c1ccc(CCN2CCO[C@@H]3c4cc5c(cc4CC[C@H]32)CCO5)cc1,Ki,D(2) dopamine receptor,> 10 µM
same,Ki,D(3) dopamine receptor,> 10 µM
